Tests used:
Format in all cases: in vivo
[1] = tested on: barnyardgrass (Echinochloa crus-galli); experiment: Test A pre-/postemergence plant response
Procedure, shortened: (§1)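 Greenhouse pot test: loam–sand soil; pre- and postemergence sprays applied same day; post plants 2–10 cm, 1–2 leaves. Readout ~10 d, visual % injury vs untreated (0 = none, 100 = complete control).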

[2] = tested on: large crabgrass (Digitaria sanguinalis); experiment: Test A pre-/postemergence plant response
Procedure, shortened: as §1

[3] = tested on: morningglory (Ipomoea coccinea); experiment: Test A pre-/postemergence plant response
Procedure, shortened: as §1

[4] = tested on: pigweed (Amaranthus retroflexus); experiment: Test A pre-/postemergence plant response
Procedure, shortened: as §1

[5] = tested on: velvetleaf (Abutilon theophrasti); experiment: Test A pre-/postemergence plant response
Procedure, shortened: as §1

[6] = tested on: wheat (Triticum aestivum); experiment: Test A pre-/postemergence plant response
Procedure, shortened: as §1

[7] = tested on: canarygrass (Phalaris minor); experiment: Test B postemergence plant response; conditions: for Plant response rating, Canarygrass: Postemergence, scale 0 to 100
Procedure, shortened: (§2)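 Visual injury ratings on a 0–100 scale, where 100 means complete control, were made 13 to 15 days after postemergence treatment of greenhouse-grown plants at the 1- to 4-leaf stage.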

[8] = tested on: chickweed (Stellaria media); experiment: Test B postemergence plant response; conditions: for Plant response rating, Chickweed: Postemergence
Procedure, shortened: as §2

[9] = tested on: windgrass (Apera spica-venti); experiment: Test B postemergence plant response; conditions: for Plant response rating, Windgrass: Postemergence
Procedure, shortened: as §2

[10] = tested on: winter barley (Hordeum vulgare); experiment: Test B postemergence plant response; conditions: for Plant response rating, Barley: Postemergence
Procedure, shortened: as §2

[11] = tested on: barnyardgrass (Echinochloa crus-galli); experiment: Test B flooded paddy test plant response
Procedure, shortened: (§3)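 Compounds were added directly to paddy water over 2-leaf-stage plants in pots flooded 3 cm above soil, water depth maintained. Visual injury scored against controls after 13 to 15 days in greenhouse, 0 (none) to 100 (complete control); dash indicates no result.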

[12] = tested on: ducksalad (Heteranthera limosa); experiment: Test B flooded paddy test plant response
Procedure, shortened: as §3

[13] = tested on: rice (Oryza sativa); experiment: Test B flooded paddy test plant response
Procedure, shortened: as §3

[14] = tested on: umbrella sedge (Cyperus difformis); experiment: Test B flooded paddy test plant response
Procedure, shortened: as §3

[15] = Postemergence, 125 g ai/ha, 0 to 100 scale, 0 no effect, 100 complete control
[16] = Postemergence, 500 g ai/ha, 0 to 100 scale, 0 no effect, 100 complete control
[17] = Preemergence, 125 g ai/ha, 0 to 100 scale (0 no effect, 100 complete control)
[18] = Preemergence, 500 g ai/ha, 0 to 100 scale (0 no effect, 100 complete control)
[19] = 8 g ai/ha, postemergence, 0-100 scale
[20] = 31 g ai/ha, scale 0 to 100, 0 no effect, 100 complete control
[21] = Flood (flooded paddy test), 62 g ai/ha, scale 0 to 100, 0 no effect, 100 complete control
[22] = Flood (flooded paddy test), 125 g ai/ha, scale 0 to 100, 0 no effect, 100 complete control
[23] = Flood (flooded paddy test), 250 g ai/ha, scale 0 to 100, 0 no effect, 100 complete control
[24] = Flood, 31 g ai/ha, scale 0 to 100

CCc1cc(-c2ccc(Cl)cc2)nn1-c1c(O)cnn(C)c1=O [Compound 21]
80: Plant response rating, Wheat [6, 16] | Plant response rating, Barnyardgrass [11, 22]
60: Plant response rating, Wheat [6, 15] | Plant response rating, Barley ([10]; 16 g ai/ha, scale 0 to 100, 0 no effect, 100 complete control)
10: Canarygrass plant response rating [7, 19]
50: Windgrass plant response rating [9, 19]
100: Plant response rating, Barnyardgrass [1, 15] | Plant response rating, Barnyardgrass [1, 16] | Plant response rating, Barnyardgrass [1, 17] | Plant response rating, Barnyardgrass [1, 18] | Plant response rating, Crabgrass, Large [2, 16] | Plant response rating, Crabgrass, Large [2, 17] | Plant response rating, Crabgrass, Large [2, 18] | Plant response rating, Wheat [6, 18] | Plant response rating, Canarygrass ([7]; 62 g ai/ha) | Plant response rating, Windgrass [9, 20] | Plant response rating, Windgrass ([9]; 62 g ai/ha, scale 0 to 100) | Plant response rating, Barley ([10]; 62 g ai/ha, scale 0 to 100) | Plant response rating, Barnyardgrass [11, 23]
98: Plant response rating, Windgrass ([9]; 16 g ai/ha, scale 0 to 100)
0: Plant response rating, Morningglory [3, 15] | Plant response rating, Morningglory [3, 16] | Plant response rating, Morningglory [3, 17] | Plant response rating, Morningglory [3, 18] | Plant response rating, Pigweed [4, 15] | Plant response rating, Pigweed [4, 16] | Plant response rating, Pigweed [4, 17] | Plant response rating, Pigweed [4, 18] | Plant response rating, Velvetleaf [5, 15] | Plant response rating, Velvetleaf [5, 16] | Plant response rating, Velvetleaf [5, 17] | Plant response rating, Velvetleaf [5, 18] | Chickweed plant response rating [8, 19] | Plant response rating, Chickweed ([8]; 16 g ai/ha, scale 0 to 100) | Plant response rating, Chickweed [8, 20] | Plant response rating, Chickweed ([8]; 62 g ai/ha, scale 0 to 100) | Barley plant response rating [10, 19] | Plant response rating, Ducksalad [12, 21] | Plant response rating, Ducksalad [12, 22] | Plant response rating, Ducksalad [12, 24] | Plant response rating, Rice [13, 21] | Plant response rating, Rice [13, 24] | Plant response rating, Sedge, Umbrella [14, 21] | Plant response rating, Sedge, Umbrella [14, 22] | Plant response rating, Sedge, Umbrella [14, 24]
70: Plant response rating, Rice [13, 23]
20: Plant response rating, Rice [13, 22]
75: Plant response rating, Barnyardgrass [11, 21]
90: Plant response rating, Crabgrass, Large [2, 15] | Plant response rating, Wheat [6, 17] | Plant response rating, Canarygrass ([7]; 16 g ai/ha)
65: Plant response rating, Ducksalad [12, 23]
30: Plant response rating, Sedge, Umbrella [14, 23]
55: Plant response rating, Barnyardgrass [11, 24]
